Experimental data published in patent publication US20020076747A1, “Method for expanding embryonic stem cells in serum-free culture” (priority 1997, published 2002).

Tests used:
[1] = tested on: D3 ES cells; test: Media formulation evaluation assay: ES cell colony morphology, alkaline phosphatase staining and plating efficiency; format: cell-based, mouse; details: for general plating efficiency and number of undifferentiated ES colonies with or without the component: component added to serum-free formulation (15% in DMEM): 15 μg/L ferric citrate, 0.3 μg/L glycl-histidyl-lysine, 300 μg/L ethanolamine
Protocol: ES D3 ES cells were used (Doetschman, T. C. et al., J. Embryol. Exp. Morph. 87:27-45 (1985)). Unless otherwise specified, D3 cells at passage 15 were used. Trypsin-EDTA (0.25%, 1 mM) was used to remove cells from plates after rinsing the cell layer with phosphate buffered saline (PBS). Cells were cultured in a humidified 37° C., 10% CO2 incubator.
The protocol for a media formulation evaluation assay was as follows. The source of ES cells for the experiments was a sub-confluent dish of ES cells maintained on a feeder layer in ES cell medium with LIF. Feeder layers for experimental conditions were established in 6 well plates (NUNC) by seeding 3-5×10^4 feeder cell/cm^2 and allowing the cells to attach. ES cells were trypsinized to form a cell suspension. Trypsin activity was quenched with serum-supplemented medium, and cells were pelleted by centrifugation at 500× g. The medium was removed and the ES cells were resuspended in DMEM containing 2 mM L-glutamine, 50 U/mL penicillin, 50 ug/mL streptomycin, 100 uM NEAA, and 100 uM 2-mercaptoethanol (final concentrations).
ES cells were then mixed with respective test media (described infra) at a concentration of […]. Feeder cell media was then removed from the feeder plates, and the feeder layers were washed once with 2 mL of DMEM (that was not supplemented with serum or any other additives). 2.5 mL of test medium and ES cells (225/well) were added to each well of feeder cells. Test conditions were assayed in triplicate (3 wells/test condition). The cells were incubated for 7 days while observations were made regarding ES cell growth parameters. Incubation conditions were 37° C., 10% CO2 in air, and humidified atmosphere.
At the end of the 7 day culture period, observations were made and then ES cells were harvested, fixed and assayed for the presence of alkaline phosphatase by using a histochemical assay (Sigma diagnostic kit 86-R, Sigma, St. Louis, Mo.). Cells were fixed and assayed according to the manufacturer's directions. In this assay, cells which express alkaline phosphatase stain dark pink or red. ES cell colonies were rated in terms of morphology and strength of alkaline phosphatase staining according to the following parameters. Class I colonies are round, stain dark pink, and have the desired, undifferentiated colony morphology characterized by a well-defined colony border. Class II colonies are those that have begun to differentiate, are stained at least 60% pink, and have a more flattened appearance, with a poorly defined border. […] Plating efficiency was determined by dividing the total number of colonies obtained by the input number of ES cells (225/well).

[2] = tested on: feeder cells; test: Feeder layer morphology in ES cell cultures; format: cell-based; details: AAP 50 mg/L, independent of LIF
Excerpt: One aspect of the supplement that was sub-optimal related to the morphology of the feeder layer in ES cell cultures maintained in the same culture vessel for more than three days. Generally, ES cells are passaged every two to three days. Typically, during selection of antibiotic-resistant ES cells, cultures are maintained without passaging for ten or more days. […] The detached cells were seen floating in the growth medium.
In order to improve the formulation, the addition of L-ascorbic acid-2-phosphate to the formulation was evaluated. In an evaluation assay (as in Example 1), the medium was supplemented with the serum-free supplement (to a fmal concentration of 15%), either with or without L-ascorbic acid-2-phosphate (50 mg/L final concentration), and 10 ng/mL LIF (final concentration).
The numbers within parentheses indicate what percentage of total ES cell colonies that the colonies with the indicated degree of differentiation represented. In Table 4, “good” feeder cell morphology reflects a more fibroblast-like character and smooth borders, rather than a spindly, ragged-looking character.

NCCO [ethanolamine]
general plating efficiency and number of undifferentiated ES colonies with or without the component [1]: no different

ferric citrate
general plating efficiency and number of undifferentiated ES colonies with or without the component [1]: no different

glycl-histidyl-lysine
general plating efficiency and number of undifferentiated ES colonies with or without the component [1]: no different

O=C1O[C@H]([C@@H](O)CO)C(O)=C1OP(=O)(O)O [L-ascorbic acid-2-phosphate]
effect on plating efficiency ([1]; factor alone): little effect | colony size ([1]; in the absence of LIF): much improved | percent of class I colonies ([1]; in the absence of LIF): increased | percent of class III colonies ([1]; in the absence of LIF): decreased | average colony size (an indication of growth rate) ([1]; with LIF in the culture media): increase | effect on the morphology class of colonies obtained ([1]; with LIF in the culture media): virtually no effect | appearance of the feeder layer [2]: improved
